The values that follow come from US20250177557A1, “METHODS OF PRODUCING MICROBUBBLE DRUG CONJUGATES, VIRAL GENE THERAPY MICROBUBBLE CONJUGATES AND TARGETED MICROBUBBLES” (priority 2022, published 2025).

The conditions of series [1]: patients; cited from earlier work.
For series [2], the system named is human SHSY-5Y cells. Kind of series: Neuroprotection of differentiated SHSY-5Y cells against parkinsonian neurotoxins (CFDA cell viability). The series is classed as cell-based. The protocol:
Neuroprotection was tested in the well-established neuronal model of human SHSY-5Y cells (Lopes, F. M.,. et al. (2010) Brain Res. 1337, 85-94) treated with parkinsonian neurotoxins. Human SHSY-5Y cells were grown in 24 well dishes and differentiated into neuron-like cells by treatment with 10 μM retinoic acid (RA) for 7 days (FIG. 8A).
Cell viability was quantified by the CFDA assay as described previously (Sandhu, J. K., et al. (2009) Neurobiol. Dis. 33, 405-414.).
Recombinant human GDNF at 50 ng/ml was used as a positive control.

The conditions of series [3]: MR guided focused ultrasound, one hemisphere sonicated. The protocol: AAV2-GFP MDCs were injected into healthy rodents and FUS sonications used to open the BBB in the two brain regions affected by Parkinson's disease, the striatum (ST) and substantia nigra (SN). MR contrast agent gadolinium was co-injected and MR imaging performed to confirm BBB opening in the two regions.
CDNF protein neurotrophic drug was conjugated to MDCs and delivered to the SN and ST in this manner. Only one hemisphere was sonicated so the animals acted as their own control.

The conditions of series [4]: brain mets patients; cited from earlier work.

Turning to ipilimumab, the “Incidence of grade 3 or -4 treatment-related AEs” value in series [1] is listed as 28%.
For the substance “CDNF-MDCs: Cerebral Dopamine Neurotrophic factor protein conjugated to microbubbles”, in series [2] (1.0 μM thapsigargin ~16 h, pre-treatment, rhGDNF 50 ng/ml, CDNF-MDCs 25-250 ng/ml), the “Neuroprotection against thapsigargin (cell viability)” value was “completely protected”. For the same substance, in series [2] (1.0 mM MPP+ ~16 h, pre-treatment, rhGDNF 50 ng/ml, CDNF-MDCs 25-250 ng/ml), the “Neuroprotection against MPP+ (cell viability)” value was “completely protected”. Moreover, in series [2] (MPP+ or thapsigargin), the “Concentrations at which maximum neuroprotection was reached” value was 25 to 250 ng/mL. The “CDNF concentration delivered to ST and SN, sonicated vs. non-sonicated hemisphere (ELISA tissue analysis)” value in series [3] is “significant CDNF concentration delivered to the sonicated hemispheres”.
On to Keytruda: checkpoint inhibitor antibody, for which, in series [4], the “Response, share of patients” value is reported as “about one third”.
